Data on six compounds can be found in patent US20040097734A1, “Aryl- and heteroarylcarbonylpiperazines and their use for the treatment of benign and malignant oncoses” (priority 2002, published 2004).

Data set [1] concerns lung carcinoma cell line NCI-H460. Briefly: XTT proliferation assay, NCI-H460. In kind it is cell-based. The note with it: Homo sapiens; NCI-H460 cells, 45 h incubation. An excerpt: (§1) The substances according to the invention were investigated for their antiproliferative activity in a proliferation test on established tumor cell lines. The test used determines the cellular dehydrogenase activity and makes possible a determination of the cell vitality and indirectly the cell count. The cell lines used are the human cervical carcinoma cell line KB/HeLa, (ATCC CCL17), the ovarian adenocarcinoma cell line SKOV-3 (ATCC HTB77), the human glioblastoma cell line SF-268 (NCI 503138) and the lung carcinoma cell line NCI-H460 (NCI 503473). In addition, for the investigation of the cell cycle-specific action of the substance, an RKOp27 cell system was used (M. Schmidt et al. Oncogene 19(20):2423-9, 2000). RKO is a human colon carcinoma cell line, in which the cell cycle inhibitor p27^kip1 induced by means of the ecdysone expression system is expressed and can be led to a cell cycle arrest specifically in […]. A nonspecifically acting substance inhibits the proliferation independently of weather the RKO cell is or is not arrested in G1 or G2. Cell cycle-specific substances such as, for example, tubulin inhibitors are, however, only cytotoxic if cells are not arrested and the cell cycle is passed through. In table 1, the cytotoxic and/or growth-inhibiting activities of the compound described with/without expression of p27^kip1 are shown.
(§2) The adherently growing tumor cell lines KB/HeLa, SKOV-3, SF-268 and NCI-H460 were cultured under standard conditions in a fumigation incubator at 37° C., 5% CO2 and 95% atmospheric humidity. On experimental day 1, the cells are detached using trypsin/EDTA and pelleted by centrifugation. Subsequently, the cell pellet is resuspended in the respective culture medium at the corresponding cell count and reacted in a 96-well microtiter plate. The plates are then cultured overnight in the fumigation incubator. The test substances are prepared as 1 mg/ml stock solutions in DMSO and diluted to the appropriate concentrations on experimental day 2 using culture medium. The substances in culture medium are then added to the cells and incubated in the fumigation incubator for 45h. As a control, cells which are not treated with test substance are used. For the XTT assay, 1 mg/ml of XTT (sodium 3′-[1-(phenylaminocarbonyl)-3,4-tetrazolium]-bis(4-methoxy-6-nitro)benzenesulfonic acid) is dissolved in RPMI-1640 medium without Phenol Red. Additionally, a 0.383 mg/ml PMS (N-methyldibenzopyrazine methylsulfate) solution in phosphate-buffered saline solution (PBS) is prepared. On experimental day 4, 75 μl/well of XTT-PMS mixture is pipetted onto the cell plates which in the meantime have been incubated with the test substances for 45 h. For this, shortly before use, the XTT solution is mixed with the PMS solution in the ratio 50:1 (vol:vol). The cell plates are then incubated in the fumigation incubator for a further 3h and the optical density (OD490nm) is determined in a photometer. By means of the OD490nm determined, the percentage inhibition is calculated relative to the control and plotted semilogarithmically in the form of a concentration-action curve. The EC50 is calculated by means of a regression analysis from the concentration-action curve using the program Graphpad Prism.
A general note: Tetrazolium dyes change colour on reduction, which living cells bring about.

The subject of data set [2] is human glioblastoma cell line SF-268. Briefly: XTT proliferation assay, SF-268. In kind it is cell-based. The note with it: SF-268 cells, 45 h incubation.
Source text: as §1, §2

Data set [3] has as its system ovarian adenocarcinoma cell line SKOV-3. Briefly: XTT proliferation assay, SKOV-3. In kind it is cell-based. The note with it: Homo sapiens, SK-OV-3; SKOV-3 cells, 45 h incubation; read-out: XTT proliferation assay, EC50, SKOV3.
Source text: as §1, §2

For data set [4], the system named is RKOp27 human colon carcinoma cell line. Briefly: Cell cycle analysis by means of the RKOp27 model (XTT). In kind it is cell-based. The note with it: RKOp27, 45 h, RKOp27 cells, read-out: XTT proliferation assay, EC50, RKOP27.
Source text: as §1, §2
The assay is carried out in 96-well plates. […] By comparison of the activity on induced and noninduced cells, conclusions on the mechanism of action (cell cycle specificity) of the therapeutics can be drawn. […] are inoculated in approximately three-fold higher cell count, since division no longer takes place during the assay in comparison with uninduced cells (20000 cells/well induced, 6250 cells/well not induced). The controls are untreated cells (+/−induction). The induction is carried out with 3 μM muristerone A On the 1st day, the cells are exposed (+/− muristerone A) and incubated at 37° C. for 24h. […]

Another data set relates to bovine tubulin. Briefly: Tubulin polymerization assay. The data set is classed as biochemical. The note with it: bovine tubulin with 30% MAPs; average of two independent experiments. Here is the method:
Selected substances were tested for inhibition of the polymerization of bovine tubulin in an in-vitro test. In this test, tubulin purified by cycles of polymerization and depolymerization is employed, which is polymerized by addition of GTP and warming. In Table 2, the EC50 values of the inhibition of polymerization of tubulin with 30% associated proteins (MAPs) and of MAP-free tubulin are indicated.
The assay is carried out based on the method of Bollag et. al. Lyophilized bovine tubulin (cytoskeleton, ML113 tubulin 30% MAPs, TL238 tubulin MAP free) is dissolved in a concentration of 2 mg/ml (ML113 in 80 mM PIPES, 0.5 mM EGTA, 2 mM MgCl2, pH6.9, 1 mM GTP) or 5 mg/ml (TL238 in 80 mM PIPES, 1 mM EGTA, 0.5 mM MgCl2, 20% (v:v) glycerol pH 6.9, 1 mM GTP). The test substances are diluted in 10% DMSO (v:v) and 5 μl of the dilutions are transferred to a 96-well microtiter plate (Nunc, half area plate). After addition of 45 μl of the tubulin solution, the polymerization is determined at 340 nm in a Spectramax 190 microtiter plate reader (Molecular devices) by means of a kinetics program at 30 sec intervals over a period of 20 min. The resulting area under curve values are used for the calculation of the inhibition with respect to the untreated control and plotted semilogarithmically in the form of a concentration-action curve. The EC50 is calculated by means of a regression analysis from the concentration-action curve using the program Graphpad Prism.

Data set [5] concerns human cervical carcinoma cell line KB/HeLa. Briefly: XTT proliferation assay, KB/HeLa. The note with it: KB/HeLa cells, 45 h incubation. In kind it is cell-based.
Source text: as §1, §2

Setting [6] is: p27kip1 induced with 3 μM muristerone A (arrested).
Setting [7] is: without expression of p27kip1 (not induced).

The melting point is the temperature of the solid-liquid transition.

The structures appear in SMILES notation. ≈ marks a conversion by molar mass, not a printed value. Read-outs that look alike come from different tables or passages of the source.

Compound `COc1cccc(N2CCN(C(=O)C3c4ccccc4-c4ccccc43)CC2)c1` [Compound 10, (9H-Fluoren-9-yl)-[4-(3-methoxyphenyl)piperazin-1-yl]methanone] came in with a melting point of 162 to 163 °C. The compound also came in with an EC50 in data set [1] of 0.085 µg/mL (≈ 0.221 µM). The compound further yielded an EC50 in data set [2] of 0.094 µg/mL (≈ 0.244 µM). For the same compound, in data set [3], the EC50 is 0.082 µg/mL (≈ 0.213 µM). For the same compound, the EC50 in data set [4] (setting [6]) is greater than 3.16 µg/mL. In addition, in data set [4] (setting [7]), the EC50 worked out at 0.082 µg/mL (≈ 0.213 µM). Besides, in the data set with bovine tubulin, the “Inhibition of tubulin polymerization, EC50, with 30% MAPs” value (shortened to “Inhibition … with 30% MAPs”) turned out to be 1.18 µg/mL. The compound also returned an EC50 in data set [5] of 0.166 µg/mL (≈ 0.432 µM).
As for `COc1cccc(N2CCN(C(=O)C3c4ccccc4Oc4ccccc43)CC2)c1` [Compound 13, [4-(3-Methoxyphenyl)piperazin-1-yl]-(9H-xanthen-9-yl)methanone], the melting point was determined as 110 °C. This compound also came in with an EC50 in data set [1] of 0.29 µg/mL (≈ 0.724 µM). Further, in data set [2], the EC50 was 0.408 µg/mL (≈ 1.02 µM). Moreover, the EC50 in data set [3] came out at 0.293 µg/mL (≈ 0.732 µM). Also, in data set [4] (setting [6]), the EC50 was greater than 3.16 µg/mL. Further, in data set [4] (setting [7]), the EC50 stood at 0.193 µg/mL (≈ 0.482 µM). Further, the “Inhibition … with 30% MAPs” value in the data set with bovine tubulin was 0.73 µg/mL. In data set [5], the EC50 was determined as 0.628 µg/mL (≈ 1.57 µM).
The compound `COc1cccc(N2CCN(C(=O)c3cccc4c3Cc3ccccc3-4)CC2)c1` [Compound 11, (9H-Fluoren-1-yl)-[4-(3-methoxyphenyl)piperazin-1-yl]methanone] showed a melting point of 124 °C.
As for `COc1cc(OC)cc(N2CCN(C(=O)c3cccc4c3Cc3ccccc3-4)CC2)c1` [Compound 9, [4-(3,5-Dimethoxyphenyl)piperazin-1-yl]-(9H-fluoren-1-yl)methanone], the melting point came out at 148 °C. In addition, in data set [1], the EC50 is 0.427 µg/mL (≈ 1.03 µM). Also, the EC50 in data set [2] was 0.692 µg/mL (≈ 1.67 µM). Besides, the EC50 in data set [3] worked out at 0.341 µg/mL (≈ 0.823 µM). Besides, in data set [4] (setting [6]), the EC50 was greater than 3.16 µg/mL. In addition, in data set [4] (setting [7]), the EC50 was 0.217 µg/mL (≈ 0.524 µM). In data set [5], the EC50 stood at 0.613 µg/mL (≈ 1.48 µM).
Take `COc1cc(OC)cc(N2CCN(C(=O)c3nccc4ccccc34)CC2)c1` [Compound 8, [4-(3,5-Dimethoxyphenyl)piperazin-1-yl]isoquinolin-1-ylmethanone]: the EC50 in data set [1] was 0.439 µg/mL (≈ 1.16 µM); in data set [2] it was 0.775 µg/mL (≈ 2.05 µM); in data set [3], 0.287 µg/mL (≈ 0.76 µM); in data set [4] (setting [6]), greater than 3.16 µg/mL; in data set [4] (setting [7]) it was 0.291 µg/mL (≈ 0.771 µM); in data set [5], 0.929 µg/mL (≈ 2.46 µM). Besides, the “Inhibition … with 30% MAPs” value with bovine tubulin was found to be 5.66 µg/mL.
Take `Cc1cc(C)cc(N2CCN(C(=O)c3cnnc4ccccc34)CC2)c1` [Compound 5, Cinnolin-4-yl-[4-(3,5-dimethylphenyl)piperazin-1-yl]methanone]: the melting point came out at 114 °C. This compound also registered an EC50 in data set [1] of 0.348 µg/mL (≈ 1 µM). Moreover, the EC50 in data set [2] amounted to 0.474 µg/mL (≈ 1.37 µM). Also, the EC50 in data set [3] was 0.496 µg/mL (≈ 1.43 µM). For the same compound, in data set [4] (setting [6]), the EC50 was greater than 3.16 µg/mL. Besides, the EC50 in data set [4] (setting [7]) is 0.25 µg/mL (≈ 0.722 µM). In data set [5], the EC50 was 1.21 µg/mL (≈ 3.5 µM).
